From PMC5048153 (Scientific Reports, 2016)

What was measured:
[1] = tested on: corticosterone-injured PC12 cells; experiment: Protective effects on corticosterone-injured PC12 cells (MTT); type: cell-based, rat; details: 24 h after treatment; for PR (protection rate): 200 μM corticosterone
How it was run: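 PC12 cells seeded at 1 × 10^5 per well and grown 24 h in DMEM with 5% horse serum and 10% FBS, then incubated with compounds. Viability by MTT (2–4 h, 37 °C), formazan dissolved in DMSO, absorbance at 570 nm; protective rate calculated from absorbance.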

L02 cells = experiment: Cytotoxicity on L02 cells (MTT); type: cell-based, human; details: Homo sapiens, L02, 100μM, after treatment; read-out: IR (inhibitory rate) L02
How it was run: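 Human normal hepatic L02 cells were plated in 96-well plates at 4 × 10^3 cells per well and grown for 24 h in 1640 or DMEM medium containing 10% fetal bovine serum, penicillin (100 unit/ml) and streptomycin (100 μg/ml), in a humidified 5% CO2 incubator. Cytotoxicity was then assessed using the MTT method.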

H9C2 cells = experiment: Cytotoxicity on H9C2 cells (MTT); type: cell-based; details: Rattus norvegicus, 48 h
Experimental: Human normal hepatic L02 cells, human embryonic kidney cell line 293 cells (HEK293) and Rattus myoblast cell line H9C2 cells were respectively seeded in 96-well plates at a density of 4 × 10^3 cells per well and cultured in the 1640 or DMEM medium, with the supplement of 10% fetal bovine serum, penicillin (100 unit/ml), streptomycin (100 μg/ml) in a humidified incubator with 5% CO2 for 24 h. After adherence, L02, HEK293 and H9C2 cells were exposed to different compounds for another 48 h. The cytotoxicities of the compounds were evaluated by MTT method.

[2] = PAMPA-BBB permeation assay; type: in vitro ADME; details: for Papp at 18 h, 100 μg/mL: Pe ± SD (n = 3), pH 7.4
Experimental: Parallel artificial membrane permeation assay (PAMPA) was performed according to the literature[44] with minor modification. The PVDF (Poly(vinylidene fluoride)) membrane of the donor plate was coated with PBL (Polar Brain Lipid, Avanti, USA) in dodecane (4 μL of 20 mg/mL PBL in dodecane) and the acceptor well was filled with 350 μL of PBS/EtOH (70/30, v/v, pH 7.4) buffer (VD). The tested compound was dissolved in DMSO and then diluted with PBS/EtOH (70/30, v/v, pH 7.4) buffer to reach the concentration of 100 μg/mL in the donor well.
200 μL of the donor solution was added to the donor wells (VA) and the donor filter plate was carefully put on the acceptor plate so that the coated membrane contacted both donor solution and acceptor buffer. Test compound diffused from the donor well through the lipid membrane (area = 0.28 cm^2) to the acceptor well. The concentration of the drug in both donor and the acceptor wells was assessed after 18 hours of incubation at room temperature in triplicate using Varioskan Flash Multimode Reader (Thermo Scientific) at the maximum absorption wavelength of tested compound. Concentration of the compound was calculated from the standard curve and expressed as the permeability (Pe) according to Equation (2):

[3] = tested on: corticosterone injured PC12 cells; experiment: Real-time PCR NGF mRNA level; type: cell-based, rat; details: 200 µM corticosterone and 5 µM drug
[4] = tested on: corticosterone injured PC12 cells; experiment: Hoechst 33258 staining (apoptosis); type: cell-based, rat; details: 200 µM corticosterone and 5 µM drug
Experimental: To detect apoptotic cells, drug treated cells were stained with the DNA dye Hoechst 33258. Cells with the indicated treatment were fixed with methanol for 10 min at 4 °C before incubation with Hoechst 33258 for 10 min at room temperature. After washes with PBS, the apoptotic cells were mounted onto slides and observed under the fluorescence microscope BX61 (Olympus, Japan). Images were captured using DP71 CCD digital camera (Olympus).

hERG K^+ channel = molecular target: T1, hERG K^+ channel (Homo sapiens, UniProt Q12809); experiment: hERG K+ channel inhibition (QPatch); type: cell-based; details: hERG-expressing CHO cells, Qpatch 16X assay
T1 construct: expressed in transfected cells
T1 sequence (Q12809 whole entry): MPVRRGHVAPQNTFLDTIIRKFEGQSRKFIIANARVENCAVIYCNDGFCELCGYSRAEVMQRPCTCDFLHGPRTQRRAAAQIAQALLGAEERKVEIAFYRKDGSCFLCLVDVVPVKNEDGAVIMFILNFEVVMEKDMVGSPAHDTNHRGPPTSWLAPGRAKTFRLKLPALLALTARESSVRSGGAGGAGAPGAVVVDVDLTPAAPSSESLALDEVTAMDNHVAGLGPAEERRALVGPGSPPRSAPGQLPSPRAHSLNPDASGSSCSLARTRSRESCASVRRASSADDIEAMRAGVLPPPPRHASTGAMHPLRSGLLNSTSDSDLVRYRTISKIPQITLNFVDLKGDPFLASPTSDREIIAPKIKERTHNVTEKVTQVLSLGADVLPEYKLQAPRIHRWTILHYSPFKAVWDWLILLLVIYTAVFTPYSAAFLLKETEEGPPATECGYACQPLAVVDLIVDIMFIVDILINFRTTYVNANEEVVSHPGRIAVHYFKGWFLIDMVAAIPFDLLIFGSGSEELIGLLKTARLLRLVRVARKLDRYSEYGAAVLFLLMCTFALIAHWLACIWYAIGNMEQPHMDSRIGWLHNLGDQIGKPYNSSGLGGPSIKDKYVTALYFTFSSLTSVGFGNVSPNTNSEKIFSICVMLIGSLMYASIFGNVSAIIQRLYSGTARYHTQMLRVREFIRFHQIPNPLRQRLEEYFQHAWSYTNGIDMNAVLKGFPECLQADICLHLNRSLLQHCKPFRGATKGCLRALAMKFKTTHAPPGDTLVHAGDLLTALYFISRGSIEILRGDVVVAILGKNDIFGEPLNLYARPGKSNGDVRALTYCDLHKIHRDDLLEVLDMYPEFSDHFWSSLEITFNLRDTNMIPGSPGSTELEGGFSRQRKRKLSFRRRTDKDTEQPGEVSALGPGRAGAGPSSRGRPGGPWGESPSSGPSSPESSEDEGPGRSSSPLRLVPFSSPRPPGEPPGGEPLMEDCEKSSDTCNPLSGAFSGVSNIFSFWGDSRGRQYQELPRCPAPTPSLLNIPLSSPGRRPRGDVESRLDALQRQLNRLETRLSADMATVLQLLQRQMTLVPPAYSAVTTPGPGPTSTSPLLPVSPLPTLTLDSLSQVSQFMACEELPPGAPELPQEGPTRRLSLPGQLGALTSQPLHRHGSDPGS
Experimental: In brief, A Chinese hamster ovary (CHO) cell line stably expressing hERG potassium channels were cultured into appropriate cell density. Then cells were automatically prepared for application to chips. Whole-cell recordings were performed using automated QPatch (Sophion) and the data were analyzed using Assay Software provided by Graphpad Prism 5.0.

Compound	PR (protection rate) ([1]; 5 μM) [%]	PR (protection rate) ([1]; […]) [%]	inhibition at 100 µM (L02 cells) [%]	IC50 (H9C2 cells) [µM]	CNS(+/−) prediction of blood-brain barrier penetration [2]	Papp at 18 h, 100 μg/mL [2] [×10⁻⁶ cm/s]	NGF mRNA level [3]	apoptosis of PC12 cells induced by corticosterone [4]	IC50 (hERG K^+ channel) [µM]	PR (protection rate), Table S1 ([1]; 1.25µM) [%]	PR (protection rate) ([1]; 1.25 μM) [%]
COc1ccc2c(c1)C(CCNC(C)=O)=NCC2.O=C(O)C(=O)O [6a-1, N-(2-(7-Methoxy-3,4-dihydroisoquinolin-1-yl)ethyl) acetamide oxalate]	42.1	37.1	< 20	455	CNS+	16.7 ± 0.41	does not change	effectively reversed apoptosis	> 40		
COc1ccc2cccc(CCNC(C)=O)c2c1 [Agomelatine, reference compound]	17.6	24.2	41.8	375	CNS+	17.8 ± 0.37				28.1	28.1
